Key:
Lrp-like protein [1] = assay: Gel filtration analysis of changes in assemblies of the Lrp-like protein on mixing with potential ligands; type: biochemical, Pyrococcus sp. OT3; conditions: for change in gel filtration profile of the Lrp-like protein (peak increased): protein monomer approximately 100 μM, at least 30 minutes at room temperature, UV 220 nm
Description: Possible changes in assemblies of the Lrp-like protein induced by interaction with amino acids and metabolic intermediates were analyzed in solution using gel filtration.
Gel filtration was carried out with the flow rate […], using a matrix (Protein Pak 125, 7.8×300 mm, Waters) and 50 mM Tris-HCl buffer (pH 7.0) containing 300 mM sodium chloride. Flow of the proteins was monitored by measuring the UV absorbance at 220 nm (LC Module I plus system, Waters). The Lrp-like protein purified by method 2, i.e., the rigorous method, were dissolved in 50 mM Tris-HCl buffer (pH 7.0) containing 200 mM sodium chloride, and kept at −80° C. until it was diluted by 10-fold with 50 mM Tris-HCl buffer (pH 7.0) containing 300 mM sodium chloride, and mixed with each potential ligand for at least 30 minutes at room temperature (about 25° C.). In the mixture, the monomer concentration of the Lrp-like protein was approximately 100 μM.

Lrp-like protein [2] = assay: Depolarization of crystals of the Lrp-like protein soaked in amino acid solutions; type: binding, Pyrococcus sp. OT3; conditions: crystals soaked in 10 mM amino acid; several hours
Description: It has been known that the regularity inside a crystal might be affected, if the structure of the protein changes upon interaction with a ligand which is incorporated from outside the crystal, thereby depolarizing the crystal. Thus, crystals of the Lrp-like protein were soaked into solutions, each containing one of twenty amino acids at the same concentration 10 mM.

O=C(O)C(O)COP(=O)(O)O (centres unmarked) [3-phosphoglyceric acid]
change in gel filtration profile of the Lrp-like protein (peak increased) (Lrp-like protein [1]; metabolic intermediate 10 mM): no significant effect was observed

C[C@H](N)C(=O)O [alanine]
effect on assembling of the Lrp-like protein concluded from gel filtration (Lrp-like protein [1]; amino acid 1 mM): accelerate disassembling of the protein | change in gel filtration profile of the Lrp-like protein (peak increased) (Lrp-like protein [1]; amino acid 1 mM): increasing the fourth peak

N=C(N)NCCC[C@H](N)C(=O)O [arginine]
effect on assembling of the Lrp-like protein concluded from gel filtration (Lrp-like protein [1]; amino acid 1 mM): accelerate disassembling of the protein | change in gel filtration profile of the Lrp-like protein (peak increased) (Lrp-like protein [1]; amino acid 1 mM): increasing the fourth peak

CC[C@H](C)[C@H](N)C(=O)O [isoleucine]
effect on assembling of the Lrp-like protein concluded from gel filtration (Lrp-like protein [1]; amino acid 1 mM): accelerates assembling of the protein | change in gel filtration profile of the Lrp-like protein (peak increased) (Lrp-like protein [1]; amino acid 1 mM): increasing the second peak | depolarization of crystals of the Lrp-like protein (Lrp-like protein [2]): depolarized

CC(C)C[C@H](N)C(=O)O [leucine]
effect on assembling of the Lrp-like protein concluded from gel filtration (Lrp-like protein [1]; amino acid 1 mM): accelerate disassembling of the protein | change in gel filtration profile of the Lrp-like protein (peak increased) (Lrp-like protein [1]; amino acid 1 mM): increasing the fourth peak | depolarization of crystals of the Lrp-like protein (Lrp-like protein [2]): depolarized

O=C(O)CC(O)C(=O)O (centres unmarked) [malic acid]
effect on assembling of the Lrp-like protein concluded from gel filtration (Lrp-like protein [1]; metabolic intermediate 10 mM): intermediate effects | change in gel filtration profile of the Lrp-like protein (peak increased) (Lrp-like protein [1]; metabolic intermediate 10 mM): the third peak increased

CSCC[C@H](N)C(=O)O [methionine]
effect on assembling of the Lrp-like protein concluded from gel filtration (Lrp-like protein [1]; amino acid 1 mM): accelerate disassembling of the protein | change in gel filtration profile of the Lrp-like protein (peak increased) (Lrp-like protein [1]; amino acid 1 mM): increasing the fourth peak | depolarization of crystals of the Lrp-like protein (Lrp-like protein [2]): depolarized

O=C(O)CC(=O)C(=O)O [oxaloacetic acid]
effect on assembling of the Lrp-like protein concluded from gel filtration (Lrp-like protein [1]; metabolic intermediate 10 mM): intermediate effects | change in gel filtration profile of the Lrp-like protein (peak increased) (Lrp-like protein [1]; metabolic intermediate 10 mM): the third peak increased

N[C@@H](Cc1ccccc1)C(=O)O [phenylalanine]
effect on assembling of the Lrp-like protein concluded from gel filtration (Lrp-like protein [1]; amino acid 1 mM): accelerate disassembling of the protein | change in gel filtration profile of the Lrp-like protein (peak increased) (Lrp-like protein [1]; amino acid 1 mM): increasing the fourth peak

CC(=O)C(=O)O [pyruvic acid]
change in gel filtration profile of the Lrp-like protein (peak increased) (Lrp-like protein [1]; metabolic intermediate 10 mM): no significant effect was observed

C[C@@H](O)[C@H](N)C(=O)O [threonine]
effect on assembling of the Lrp-like protein concluded from gel filtration (Lrp-like protein [1]; amino acid 1 mM): accelerate disassembling of the protein | change in gel filtration profile of the Lrp-like protein (peak increased) (Lrp-like protein [1]; amino acid 1 mM): increasing the fourth peak

CC(C)[C@H](N)C(=O)O [valine]
effect on assembling of the Lrp-like protein concluded from gel filtration (Lrp-like protein [1]; amino acid 1 mM): intermediate effects | change in gel filtration profile of the Lrp-like protein (peak increased) (Lrp-like protein [1]; amino acid 1 mM): the third peak increased | depolarization of crystals of the Lrp-like protein (Lrp-like protein [2]): depolarized

Reference: patent US20050208463A1, “Method of screening drug” (priority 2001, published 2005)
